Laboratory results taken from ChEMBL document CHEMBL1201862, “PubChem BioAssay data set” (2004).
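96-well plates; 48 h exposure; 5 concentrations. Endpoints by linear interpolation between flanking doses. Not reached: highest tested concentration assigned. Abbreviation: GI50, concentration required for 50% inhibition of growth.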 Activity calls are given as the source filed them. Rule as the data show it: active = GI50 up to about 1.1 µM and inactive = higher.

How the values were obtained:
Assay in all cases: NCI-60 cell line screen, 48 h
[1] = tested on: SF-295
[2] = tested on: MCF7
[3] = tested on: RPMI-8226
[4] = tested on: COLO 205
[5] = tested on: SK-MEL-28
[6] = tested on: HL-60
[7] = tested on: LOX IMVI
[8] = tested on: SR
[9] = tested on: SNB-19
[10] = tested on: MDA-N
[11] = tested on: NCI-H23
[12] = tested on: HCC 2998
[13] = tested on: OVCAR-5
[14] = tested on: ACHN
[15] = tested on: HOP-62
[16] = tested on: IGROV-1
[17] = tested on: CAKI-1
[18] = tested on: SNB-75
[19] = tested on: U-251

Measured: GI50

O=C1N=C2SC=C(NC(=S)Nc3ccccc3)N2NC12c1ccccc1-c1ccccc12
inactive: [1] > 10 µM | [2] > 10 µM | [3] > 10 µM | [4] > 10 µM | [5] > 10 µM | [6] > 10 µM | [7] > 10 µM | [8] > 10 µM | [9] > 10 µM | [10] > 10 µM | [11] > 10 µM | [12] > 10 µM | [13] > 10 µM | [14] 9.4 µM | [15] > 10 µM | [16] > 10 µM | [17] > 10 µM | [18] > 10 µM

O=C1[C@H](c2ccccc2)C2c3ccccc3CCN12 (some centres undefined)
inactive: [1] > 10 µM | [2] > 10 µM | [3] > 10 µM | [4] > 10 µM | [5] > 10 µM | [6] > 10 µM | [7] > 10 µM | [8] > 10 µM | [9] > 10 µM | [19] > 10 µM | [10] > 10 µM | [11] > 10 µM | [12] > 10 µM | [13] > 10 µM | [14] > 10 µM | [15] > 10 µM | [16] > 10 µM | [17] > 10 µM | [18] > 100 µM

CCOC(=O)CN1CCNCCN(CC(=O)OCC)CCNCC1
inactive: [1] > 100 µM | [2] > 100 µM | [3] > 100 µM | [4] > 100 µM | [5] > 100 µM | [6] > 100 µM | [7] > 100 µM | [8] 78.7 µM | [9] > 100 µM | [19] > 100 µM | [10] > 100 µM | [12] > 100 µM | [13] > 100 µM | [14] > 100 µM | [15] > 100 µM | [16] > 100 µM | [17] > 100 µM | [18] > 100 µM

COc1cc(/C=C2\N=C(c3ccccc3)N(c3nc4cc(C)c(C)cc4s3)C2=O)cc(OC)c1OC
inactive: [1] 27.9 µM | [2] 18.5 µM | [3] 19.3 µM | [4] 27.5 µM | [5] 62.2 µM | [6] 17.8 µM | [7] 22.4 µM | [8] 18.4 µM | [9] 36 µM | [19] 21.8 µM | [10] 16.1 µM | [12] 20.9 µM | [13] 27.2 µM | [14] 27 µM | [15] 19.9 µM | [16] 15.9 µM | [17] 35.1 µM | [18] 18.5 µM

CCN(CC)c1ccc2cc(C(=O)Nc3ccc(C)cc3)c(=N)oc2c1
inactive: [2] > 100 µM | [3] > 100 µM | [4] > 100 µM | [5] > 100 µM | [6] > 100 µM | [7] > 100 µM | [8] > 100 µM | [9] > 100 µM | [19] > 100 µM | [10] > 100 µM | [11] > 100 µM | [12] > 100 µM | [13] > 100 µM | [14] > 100 µM | [15] > 100 µM | [16] > 100 µM | [17] > 100 µM | [18] > 100 µM

O=C1/C(=C/c2ccccc2[N+](=O)[O-])N=C(c2ccccc2)N1c1nc2ccccc2s1
inactive: [1] 40.2 µM | [2] 13 µM | [3] 9.82 µM | [5] 31.3 µM | [6] 26.1 µM | [7] 22 µM | [8] 12.9 µM | [9] 42.6 µM | [19] 29.4 µM | [10] 26.1 µM | [11] 17.4 µM | [12] 17.8 µM | [13] 73.6 µM | [14] 23.2 µM | [15] 27.1 µM | [16] 11.9 µM | [17] 34.1 µM | [18] 27.3 µM
